Consider 26 compounds from patent US20050014765A1, “Aryl-heteroaromatic products, compositions comprising them and use” (Aventis Pharma S.A., priority 2003, published 2005).

For experiment [1], the target named is T1, Tubulin purified from pig brains (Sus scrofa, UniProt P02550+P02554).
T1 construct: Tubulin is purified from pig brains according to published methods; from tissue; host or cells: pig brain
Description: Assessment of the inhibition of tubulin polymerization (turbidimetry at 350 nm). In kind it is biochemical. The note with it: concentration which inhibits the rate of polymerization by 50%; tubulin 1 mg/ml, 37° C.; read-out: Inhibition of tubulin polymerization IC 50. How it is done:
Assessment of the Inhibition of Tubulin Polymerization
Tubulin is purified from pig brains according to published methods (Shelanski et al., 1973, Proc. Natl. Acad. Sci. USA, 70, 765-768. Weingarten et al., 1975, Proc. Natl. Acad. Sci. USA, 72, 1858-1862). Briefly, the brains are ground and centrifuged in an extraction buffer. The tubulin, present in the extract supernatant is subjected to two successive cycles of polymerization at 37° C. and depolymerization at 4° C., before being separated from the MAPs (Microtubule Associated Proteins) by chromatography on a phosphocellulose P11 column (Whatman). The tubulin thus isolated is more than 95% pure. It is stored in a buffer known as RB/2 30% glycerol, the composition of which is 50 mM MES-NaOH [2-(N-morpholino)ethanesulfonic acid], pH 6.8; 0.25 mM MgCl2; 0.5 mM EGTA; 30% (v/v) glycerol, 0.2 mM GTP (guanosine 5′-triphosphate).
The polymerization of the tubulin into microtubules is monitored by turbidimetry as follows: the tubulin is adjusted to a concentration of 10 μm (1 mg/ml) in the RB/2 30% glycerol buffer, to which are added 1 mM GTP and 6 mM MgCl2. The polymerization is initiated by increasing the temperature from 6° C. to 37° C. in a cuvette with a 1 cm optical pathlength, placed in a UVIKON 931 spectrophotometer (Kontron) equipped with a thermostatically-regulated cuvette holder. The increase in turbidity of the solution is monitored at 350 nm.
The products are dissolved at 10 mM in DMSO and added at variable concentrations (0.5 to 10 μm) to the tubulin solution before polymerization. The IC50 is defined as the concentration of the product which inhibits the rate of polymerization by 50%.

A further experiment concerns HCT116 cells. Description: Inhibition of proliferation of the HCT116 human colon tumor line ([14C]-thymidine incorporation). In kind it is cell-based. To be noted: HCT-116, 48 hours incubation at 37° C., read-out: Inhibition of HCT116 proliferation IC 50. The protocol:
Test for Determining the Inhibition of Proliferation of the HCT116 Human Colon Tumor Line
The proliferation of HCT116 cells is evaluated by mesuring the incorporation of [^14C]-thymidine in the following way. The HCT166 cells (from the ATCC) are cultured in a DMEM medium (Gibco) which contains 10% of fetal calf serum and antibiotics (1% penicillin, 1% streptomycin). To perform the proliferation test, the cells are seeded into 96-well cytostar microplates (Amersham) at the rate of 5000 cells per well. The [^14C]-thymidine (0.1 μCi/well) and the products to be evaluated are subsequently added. Variable concentrations of products up to 10 μM are used; the DMSO (solvent used to dissolve the products) should not exceed 0.5% in the medium. 48 hours after incubation at 37° C., the radioactivity incorporated into the cells is measured by counting the plate in a Tri-Lux counter (Wallac). The IC50 is defined as the concentration of product which reduces the radioactivity by 50% compared with an untreated control. A product with an IC50 of less than 10 μm is regarded as cytotoxic.

SMILES strings stand for the structures. Structures can show the parent of a compound that is named as a salt.

T1 sequence (P02550 whole entry): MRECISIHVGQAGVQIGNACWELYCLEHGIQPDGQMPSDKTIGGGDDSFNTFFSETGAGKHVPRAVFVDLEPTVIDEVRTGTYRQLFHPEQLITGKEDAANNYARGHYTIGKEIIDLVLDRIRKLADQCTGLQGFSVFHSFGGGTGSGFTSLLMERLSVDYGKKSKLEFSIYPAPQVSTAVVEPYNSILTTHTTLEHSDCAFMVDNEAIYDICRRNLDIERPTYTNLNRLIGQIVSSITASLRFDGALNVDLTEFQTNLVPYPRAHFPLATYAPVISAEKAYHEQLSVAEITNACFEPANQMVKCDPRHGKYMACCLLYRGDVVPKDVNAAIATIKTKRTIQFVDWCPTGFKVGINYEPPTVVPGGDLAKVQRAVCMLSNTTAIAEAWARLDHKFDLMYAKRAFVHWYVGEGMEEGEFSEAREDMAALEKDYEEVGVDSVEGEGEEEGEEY
T1 sequence (P02554 whole entry): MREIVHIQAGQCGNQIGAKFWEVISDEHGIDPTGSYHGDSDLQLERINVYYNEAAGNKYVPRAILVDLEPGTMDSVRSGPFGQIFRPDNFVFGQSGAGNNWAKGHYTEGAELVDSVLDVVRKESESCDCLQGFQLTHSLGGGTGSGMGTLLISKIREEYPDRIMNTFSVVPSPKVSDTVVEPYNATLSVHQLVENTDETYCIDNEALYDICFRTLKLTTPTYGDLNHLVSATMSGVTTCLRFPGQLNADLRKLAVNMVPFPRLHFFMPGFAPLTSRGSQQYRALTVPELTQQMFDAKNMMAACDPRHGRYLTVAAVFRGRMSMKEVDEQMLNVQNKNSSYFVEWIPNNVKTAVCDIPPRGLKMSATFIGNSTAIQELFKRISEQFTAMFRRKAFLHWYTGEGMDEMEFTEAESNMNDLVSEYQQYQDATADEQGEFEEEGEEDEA

`N#Cc1cccc(N2CCN(C(=O)c3cncn3-c3ccccc3)CC2)c1` [Example 13, [4-(3-Cyanophenyl)piperazin-1-yl](1-phenyl-1H-imidazol-5-yl)methanone]: the values for the IC50 (in experiment [1]; in the experiment with HCT116 cells) were 2.9 µM and 0.0909 µM, respectively.
In the same order, the values of `N#Cc1cccc(N2CCN(C(=O)c3[nH]cnc3-c3ccccc3)CC2)c1` [Example 14, [4-(3-Cyanophenyl)piperazin-1-yl](4-phenyl-1H-imidazol-5-yl)methanone] are 1.2 µM and 0.0074 µM.
In the same order, the values of `O=C(c1c[nH]cc1-c1ccccc1)N1CCN(c2cccc(Cl)c2)CC1` [Example 15, [4-(3-Chlorophenyl)piperazin-1-yl](4-phenyl-1H-pyrrol-3-yl)methanone] are 2.9 µM and 0.731 µM.
The like results for `COc1cc(OC)cc(N2CCN(C(=O)c3c[nH]cc3-c3ccccc3)CC2)c1` [Example 16, [4-(3,5-Dimethoxyphenyl)piperazin-1-yl](4-phenyl-1H-pyrrol-3-yl)methanone] were, in that order, 2.4 µM and 0.0085 µM.
For the compound `NC(=O)c1cccc(N2CCN(C(=O)c3cncn3-c3ccccc3)CC2)c1` [Example 17, [4-(3-Carboxamidophenyl)piperazin-1-yl](1-phenyl-1H-imidazol-5-yl)methanone], the IC50 in experiment [1] came to 5.5 µM; in the experiment on HCT116 cells, 0.536 µM.
With `COc1cc(OC)cc(N2CCN(C(=O)c3cn(C)cc3-c3ccccc3)CC2)c1` [Example 18, [4-(3,5-Dimethoxyphenyl)piperazin-1-yl](1-methyl-4-phenyl-1H-pyrrol-3-yl)methanone hydrochloride], the IC50 in experiment [1] came out at 0.97 µM; in the experiment with HCT116 cells, 0.0038 µM.
In the same order, the values of `COc1cc(OC)cc(N2CCN(C(=O)c3nc(S)[nH]c3-c3ccccc3)CC2)c1` [Example 20, [4-(3,5-Dimethoxyphenyl)piperazin-1-yl](2-mercapto-5-phenyl-1H-imidazol-4-yl)methanone] are 0.7 µM and 0.0117 µM.
The like results for `NC(=O)c1cccc(N2CCN(C(=O)c3[nH]cnc3-c3ccccc3)CC2)c1` [Example 22, [4-(3-Carboxamidophenyl)piperazin-1-yl](4-phenyl-1H-imidazol-5-yl)-methanone] were, in that order, 1.1 µM and 0.193 µM.
Consider `COc1cc(OC)cc(N2CCN(C(=O)c3nc(SC)[nH]c3-c3ccccc3)CC2)c1` [Example 23, [4-(3,5-Dimethoxyphenyl)piperazin-1-yl](2-methylsulfanyl-5-phenyl-1H-imidazol-4-yl)methanone], for which the IC50 is 0.6 µM in experiment [1] and 0.0017 µM in the experiment on HCT116 cells.
The like results for `COc1cc(OC)cc(N2CCN(C(=O)c3nc(SC)n(C)c3-c3ccccc3)CC2)c1` [Example 24, [4-(3,5-Dimethoxyphenyl)piperazin-1-yl](N-methyl-2-methylsulfanyl-5-phenyl-1H-imidazol-4-yl)methanone] were, in that order, 9.5 µM and 0.114 µM.
The like results for `NC(=O)c1cccc(N2CCN(C(=O)c3cc[nH]c3-c3ccccc3)CC2)c1` [Example 25, [4-(3-Carboxamidophenyl)piperazin-1-yl](2-phenyl-1-H-pyrrol-3-yl)methanone] were, in that order, 9.6 µM and 0.297 µM.
The like results for `O=C(c1cc[nH]c1-c1ccccc1)N1CCN(c2cccc(Cl)c2)CC1` [Example 26, [4-(3-Chlorophenyl)piperazin-1-yl](2-phenyl-1H-pyrrol-3-yl)methanone] were, in that order, 3.2 µM and 0.0752 µM.
For `COc1cccc(N2CCN(C(=O)c3[nH]cnc3-c3ccccc3)CC2)c1` [Example 29, [4-(3-Methoxyphenyl)piperazin-1-yl](4-phenyl-1H-imidazol-5-yl)methanone], the values for the IC50 (in experiment [1]; in the experiment with HCT116 cells) were 0.4 µM and 0.003 µM, respectively.
As to `O=C(c1[nH]cnc1-c1ccccc1)N1CCN(c2cccc(OC(F)F)c2)CC1` [Example 30, [4-(3-Difluoromethoxyphenyl)piperazin-1-yl](5-phenyl-1H-imidazol-4-yl)methanone], the figures for the IC50 (in experiment [1]; with HCT116 cells) were 0.8 µM and 0.0064 µM, respectively.
Consider `COc1cc(OC)cc(N2CCN(C(=O)c3[nH]c([S+](C)[O-])nc3-c3ccccc3)CC2)c1` (stereo not shown) [Example 33, [4-(3,5-Dimethoxyphenyl)piperazin-1-yl](2-methanesulfinyl-5-phenyl-1H-imidazol-4-yl)methanone], for which the values for the IC50 (in experiment [1]; in the experiment on HCT116 cells) were 1.95 µM and 0.18 µM, respectively.
The like results for `COC(=O)CCn1cc(C(=O)N2CCN(c3cccc(Cl)c3)CC2)c(-c2ccccc2)c1` [Example 34, Methyl 3-{3-[4-(3-chlorophenyl)piperazin-1-ylcarbonyl]-4-phenylpyrrol-1-yl}-propionate] were, in that order, 2.16 µM and 0.749 µM.
With `Cn1cc(C(=O)N2CCN(c3cccc(C(N)=O)c3)CC2)c(-c2ccccc2)c1` [Example 37, 3-[4-(1-Methyl-4-phenyl-1H-pyrrol-3-yl-carbonyl)piperazin-1-yl]benzamide], the IC50 in experiment [1] is 0.72 µM; in the experiment with HCT116 cells, 0.0149 µM.
In the same order, the values of `COc1cc(OC)c(O)c(N2CCN(C(=O)c3[nH]c([S+](C)[O-])nc3-c3ccccc3)CC2)c1` (stereo not shown) [Example 38, [4-(2-Hydroxy-3,5-dimethoxyphenyl)piperazin-1-yl](2-methanesulfinyl-5-phenyl-1H-imidazol-4-yl)methanone] are 19.9 µM and 2.31 µM.
In the same order, the values of `NC(=O)c1cccc(N2CCN(C(=O)c3[nH]ccc3-c3ccccc3)CC2)c1` [Example 39, 3-[4-(3-Phenyl-1H-pyrrol-2-ylcarbonyl)piperazin-1-yl]benzamide] are 12.4 µM and 0.2 µM.
In the same order, the values of `COc1cc(OC)cc(N2CCN(C(=O)c3c(-c4ccccc4)ccn3C)CC2)c1` [Example 40, [4-(3,5-Dimethoxyphenyl)piperazin-1-yl](1-methyl-3-phenyl-1H-pyrrol-2-yl)-methanone hydrochloride] are 11.2 µM and 0.275 µM.
On to `COc1cc(OC)cc(N2CCN(C(=O)c3cn(C(C)=O)cc3-c3ccccc3)CC2)c1` [Example 41, 1-{3-[4-(3,5-Dimethoxyphenyl)piperazin-1-yl-carbonyl]-4-phenylpyrrol-1-yl}-ethanone], for which the IC50 worked out at 1.33 µM in experiment [1] and 0.123 µM in the experiment with HCT116 cells.
`COc1cc(OC)cc(N2CCN(C(=O)c3sc(N)nc3-c3ccccc3)CC2)c1` [Example 42, (2-Amino-4-phenylthiazol-5-yl)[4-(3,5-dimethoxyphenyl)piperazin-1-yl]-methanone]: the IC50 in experiment [1] came to 1.29 µM; with HCT116 cells, 0.0016 µM.
In the same order, the values of `COc1cc(OC)cc(N2CCN(C(=O)c3[nH]c(C)nc3-c3ccccc3)CC2)c1` [Example 43, [4-(3,5-Dimethoxyphenyl)piperazin-1-yl](2-methyl-5-phenyl-3H-imidazol-4-yl)methanone] are 0.6 µM and 0.0071 µM.
The like results for `COc1cc(OC)cc(N2CCN(C(=O)c3cn(CCCC(=O)O)cc3-c3ccccc3)CC2)c1` [Example 46, 4-{3-[4-(3,5-Dimethoxyphenyl)piperazin-1-yl]carbonyl-4-phenyl-1H-pyrrol-1-yl}-butanoic acid] were, in that order, 4.35 µM and 6.38 µM.
In the same order, the values of `COc1cc(OC)cc(N2CCN(C(=O)c3cn(Cc4cccnc4)cc3-c3ccccc3)CC2)c1` [Example 48, [4-(3,5-Dimethoxyphenyl)piperazin-1-yl][1-(pyridin-3-yl)methyl-4-phenyl-1H-pyrrol-3-yl]methanone] are 0.75 µM and 0.0511 µM.
As to `Cn1ccc(C(=O)N2CCN(c3cccc(C(N)=O)c3)CC2)c1-c1ccccc1` [Example 50, 3-[4-(1-Methyl-2-phenyl-1H-pyrrol-3-ylcarbonyl)piperazin-1-yl]benzamide], the IC50 is 3.41 µM in experiment [1] and 0.536 µM in the experiment with HCT116 cells.
